Reference: paper PMC10089971 (British journal of pharmacology, 2023)
Entries after “also recorded” stand apart in the source; their conditions may differ. Counter-ions that a name gives are not always drawn.

Tests used:
[1] = system: MC38 colon adenocarcinoma cells; details: mouse, in vivo
intestinal organoids = test: Intestinal organoids treated with CPT-11 with or without morphine; details: CPT-11 in the presence or absence of morphine
[2] = Analgesic efficacy of morphine with CPT-11; assay type: in vivo; details: CPT-11 co-administration
[3] = system: MC38 colon adenocarcinoma cells; test: MC38 subcutaneous tumor model, anti-tumor efficacy of CPT-11; details: MC38 s.c. tumors; compared with saline controls
C57BL/6 mice [4] = test: CPT-11-induced GI toxicity in mice; details: for CPT-11-induced tissue damage in the ileum (histological score): co-administered with CPT-11 75 mg/kg, compared with CPT-11 alone
C57BL/6 mice [5] = test: Intestinal transit time with 70-kDa FITC-dextran; assay type: in vivo; details: compared to saline-treated mice
carboxylesterase (CES) = details: ref Quinney et al., 2005; cited from earlier work

**Q.** With `CCc1c2c(nc3ccc(OC(=O)N4CCC(N5CCCCC5)CC4)cc13)-c1cc3c(c(=O)n1C2)COC(=O)[C@]3(O)CC` [CPT-11, Irinotecan hydrochloride] as the molecule, how does the “body weight loss in tumor-bearing mice” value [1] read?
**A.** induced weight loss

**Q.** What about the “growth of intestinal organoids” value (intestinal organoids) of the same molecule?
**A.** inhibited the growth of crypt stem cells

**Q.** What about the “analgesic efficacy of morphine” value [2] of the same molecule?
**A.** didn’t affect the analgesic efficacy of morphine

**Q.** And the “reduction of tumor sizes” value [3]?
**A.** 41.6%

**Q.** With `CCOc1ccc(NC(=S)N(CCO)Cc2cc3cc(C)cc(C)c3[nH]c2=O)cc1` [Inh-1, 1-((6,8-Dimethyl-2-oxo-1,2-dihydroquinolin-3-yl)methyl)-3-(4-ethoxyphenyl)-1-(2-hydroxyethyl)thiourea] as the molecule, how does the “intestinal epithelial damage (ileal histology)” value (C57BL/6 mice [4]; Inh-1 in morphine + CPT-11-treated mice) read?
**A.** rescued the intestinal epithelial damage observed with morphine and CPT-11

**Q.** Which gut transit time (C57BL/6 mice [5]) does the source give for `Clc1cccc(Cl)c1N=C1NCCN1` [clonidine, Clonidine hydrochloride] here?
**A.** significantly prolonged gut transit time

**Q.** With `CN(C)C(=O)C(CCN1CCC(O)(c2ccc(Cl)cc2)CC1)(c1ccccc1)c1ccccc1` [loperamide, Loperamide] as the molecule, how does the “CPT-11-induced tissue damage in the ileum (histological score)” value (C57BL/6 mice [4]) read?
**A.** did not significantly exacerbate small intestinal tissue damage

**Q.** And the weight loss (C57BL/6 mice [4]; oral loperamide + CPT-11 vs CPT-11)?
**A.** did not significantly exacerbate

**Q.** And the carboxylesterase inhibition (carboxylesterase (CES))?
**A.** inhibitor of carboxylesterase (CES)

**Q.** Which “growth of intestinal organoids” value (intestinal organoids) does the source give for `CN1CC[C@]23c4c5ccc(O)c4O[C@H]2[C@@H](O)C=C[C@H]3[C@H]1C5` [morphine, Morphine sulfate] here?
**A.** did not show any direct effects on CPT-11-treated organoids

**Q.** What about the gut transit time (C57BL/6 mice [5]) of the same molecule?
**A.** significantly prolonged gut transit time

**Q.** What about the “CPT-11-induced tissue damage in the large intestine” value (C57BL/6 mice [4]; co-administered with CPT-11) of the same molecule?
**A.** showed no effects on CPT-11-induced tissue damage

**Q.** What about the “CPT-11-induced tissue damage in the ileum (histological score)” value (C57BL/6 mice [4]) of the same molecule?
**A.** potentiated CPT-11-induced tissue damage in the ileum; also recorded: significantly potentiated CPT-11-induced tissue damage in the small intestines
